The source made the active and inactive calls. The rule behind the calls is not given here.
What was measured:
STF/293 = assay: Activation of TCF/beta-catenin transcription in human STF/293 cells assessed as increase in TOP activity by luciferase reporter gene assay; format: cell-based
HEK293 [1] = assay: Activation of gene transcription in HEK293 cells assessed as increase in FOP at 10 to 30 uM activity by luciferase reporter gene assay; format: functional, cell-based; conditions: Homo sapiens
HEK293 [2] = assay: Cytotoxicity against STF reporter expressing HEK293 cells at 10 to 30 uM after 24 hrs by fluorescein diacetate dye based fluorescence assay; format: cell-based; conditions: human, hek293, 24 h
[3] = Activation of Proto-oncogene protein Wnt/beta-catenin pathway in human STF/293 cells assessed as increase in cytosolic beta-catenin expression at 5 to 20 uM after 24 hrs; format: cell-based
[4] = Activation of Proto-oncogene protein Wnt/beta-catenin pathway in human STF/293 cells assessed as increase in nuclear beta-catenin expression at 5 to 20 uM after 24 hrs; format: cell-based
[5] = target: Casein kinase I isoform alpha (Homo sapiens) (UniProt P48729); assay: Inhibition of CK1alpha in human STF/293 cells assessed as reduction in beta-catenin Ser33 phosphorylation at 5 to 20 uM after 24 hrs; format: cell-based
[6] = target: Casein kinase I isoform alpha (Homo sapiens) (UniProt P48729); assay: Inhibition of CK1alpha in human STF/293 cells assessed as reduction in beta-catenin Ser37 phosphorylation at 5 to 20 uM after 24 hrs; format: cell-based
[7] = target: Casein kinase I isoform alpha (Homo sapiens) (UniProt P48729); assay: Inhibition of CK1alpha in human STF/293 cells assessed as reduction in beta-catenin Ser45 phosphorylation at 5 to 20 uM after 24 hrs; format: cell-based
[8] = target: Casein kinase I isoform alpha (Homo sapiens) (UniProt P48729); assay: Inhibition of CK1alpha in human STF/293 cells assessed as reduction in beta-catenin Thr41 phosphorylation at 5 to 20 uM after 24 hrs; format: cell-based
HEK293 [9] = assay: Effect on GSK3beta expression in STF reporter expressing HEK293 cells at 5 to 20 uM after 24 hrs; format: functional, cell-based; conditions: Homo sapiens
HEK293 [10] = assay: Effect on CK1alpha expression in STF reporter expressing HEK293 cells at 5 to 20 uM after 24 hrs; format: functional, cell-based; conditions: Homo sapiens
[11] = target: Casein kinase I isoform alpha (Homo sapiens) (UniProt P48729); assay: Inhibition of CK1alpha in human STF/293 cells assessed as reduction in beta-catenin Ser45 phosphorylation at 20 uM in presence of 200 nM CK1alpha activator pyrvinium after 24 hrs; format: cell-based
[12] = target: Casein kinase I isoform alpha (Homo sapiens) (UniProt P48729); assay: Inhibition of CK1alpha in human STF/293 cells assessed as reduction in beta-catenin Ser33/Ser37/Thr41 phosphorylation at 20 uM in presence of 200 nM CK1alpha activator pyrvinium after 24 hrs; format: cell-based
[13] = Activation of Proto-oncogene protein Wnt/beta-catenin pathway in human STF/293 cells assessed as increase in beta-catenin expression at 20 uM in presence of 200 nM CK1alpha activator pyrvinium after 24 hrs; format: cell-based
[14] = Activation of Proto-oncogene protein Wnt/beta-catenin pathway in zebra fish assessed as increase in beta-catenin expression at 100 to 300 uM treated from 1.75 hrs post fertilization to 24 hrs post fertilization; conditions: Danio rerio

Chain of Casein kinase I isoform alpha (Homo sapiens) (P48729 2-337 limits assumed): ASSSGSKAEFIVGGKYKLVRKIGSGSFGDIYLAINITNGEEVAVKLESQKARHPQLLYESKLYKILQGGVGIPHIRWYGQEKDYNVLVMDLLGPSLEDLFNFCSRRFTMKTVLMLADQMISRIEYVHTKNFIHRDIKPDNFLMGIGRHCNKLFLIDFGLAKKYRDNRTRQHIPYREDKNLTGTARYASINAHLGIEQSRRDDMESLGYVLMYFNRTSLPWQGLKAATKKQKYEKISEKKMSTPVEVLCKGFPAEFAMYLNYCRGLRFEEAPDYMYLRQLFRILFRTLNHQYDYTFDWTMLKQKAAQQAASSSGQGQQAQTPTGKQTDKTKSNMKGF

Row | Compound | Activity (STF/293) | Activity (HEK293 [1]) | Activity (HEK293 [2]) | Activity [3] | Activity [4] | inhibition [5] | inhibition [6] | inhibition [7] | inhibition [8] | Activity (HEK293 [9]) | Activity (HEK293 [10]) | inhibition [11] | inhibition [12] | Activity [13] | Activity [14]
1 | CC[C@H](CC[C@@H](C)[C@H]1CC[C@H]2[C@@H]3C(=O)C=C4C[C@@H](O)CC[C@]4(C)[C@H]3CC[C@]12C)C(C)C | Dose-dependent effect | inactive | Non-toxic |  |  |  |  |  |  |  |  |  |  |  | 
2 | CC[C@H](CC[C@@H](C)[C@H]1CC[C@H]2[C@@H]3CC=C4C[C@@H](O[C@@H]5O[C@H](CO)[C@@H](O)[C@H](O)[C@H]5O)CC[C@]4(C)[C@H]3CC[C@]12C)C(C)C [SITOGLUSIDE] | Dose-dependent effect |  | Non-toxic |  |  |  |  |  |  |  |  |  |  |  | 
3 | C=C(C)[C@@H]1CC[C@]2(C)CC[C@]3(C)[C@H](CC[C@@H]4[C@@]5(C)CC[C@H](O)C(C)(C)[C@@H]5CC[C@]43C)[C@@H]12 [LUPEOL] | Dose-dependent effect |  | Non-toxic |  |  |  |  |  |  |  |  |  |  |  | 
4 | COc1ccn(C)c(=O)c1C#N [RICININE] | Dose-dependent effect | inactive | Non-toxic | Active | Active | Active | Active | Active | Active | inactive | inactive | Active | Active | Active | Dose-dependent effect

Reference: ChEMBL document CHEMBL3351547, “Ricinine: a pyridone alkaloid from Ricinus communis that activates the Wnt signaling pathway through casein kinase 1α” (Bioorg Med Chem, 2014)
